Laboratory results published in patent US7132437B2, “Renal-selective biphenylalkyl 1H-substituted-1,2,4-triazole angiotensin II antagonists for treatment of hypertension” (G.D. Searle, priority 1990, dated 2006).

What was measured:
rabbit aortic rings = experiment: Assay B: In Vitro Vascular Smooth Muscle Response for AII; assay type: cell-based; details: for Assay B pA2 / Kb: antagonist at 10^-5 M, two values per cell = aorta rings from two rabbits; for Kb: Oryctolagus cuniculus, read-out: Assay B pA2 (converted)
Procedure: Assay B: In Vitro Vascular Smooth Muscle-Response for ATT
Compounds of Formula I were tested for antagonist activity in rabbit aortic rings. Male New Zealand white rabbits (2–2.5 kg) were sacrificed using an overdose of pentobarbital and exsanguinated via the carotid arteries. The thoracic aorta was removed, cleaned of adherent fat and connective tissue and then cut into 3-mm ring segments. The endothelium was removed from the rings by gently sliding a rolled-up piece of filter paper into the vessel lumen. The rings were then mounted in a water-jacketed tissue bath, maintained at 37° C., between moveable and fixed ends of a stainless steel wire with the moveable end attached to an FT03 Grass transducer coupled to a Model 7D Grass Polygraph for recording isometric force responses. The bath was filled with 20 ml of oxygenated (95% oxygen/5% carbon dioxide) Krebs solution of the following composition […]: 130 NaCl, 15 NaHCO3, 15 KCl, 1.2 NaH2PO4, 1.2 MgSO4, 2.5 CaCl2, and 11.4 glucose. The preparations were equilibrated for one hour before approximately one gram of passive tension was placed on the rings. Angiotensin II concentration-response curves were then recorded (3×10^−10 to 1×10–5 M). Each concentration of AII was allowed to elicit its maximal contraction, and then AII was washed out repeatedly for 30 minutes before rechallenging with a higher concentration of AII. Aorta rings were exposed to the test antagonist at 10^−5 M for 5 minutes before challenging with AII. Adjacent segments of the same aorta ring were used for all concentration-response curves in the presence or absence of the test antagonist. The effectiveness of the test compound was expressed in terms of pA2 values and were calculated according to H. O. Schild [Br. J. Pharmacol. Chemother., 2, 189–206 (1947)]. […] Each test antagonist was evaluated in aorta rings from two rabbits.

AII pressor response = experiment: Assay C: In Vivo Intraduodenal Pressor Assay Response for AII Antagonists; parameters: species or system Sprague-Dawley rats
Procedure: Assay C: In Vivo Intraduodenal Pressor Assay Response for AII Antagonists
Male Sprague-Dawley rats weighing 225–300-grams were anesthetized with Inactin (100 mg/kg, i.p.) and catheters were implanted into the trachea, femoral artery, femoral vein and duodenum. Arterial pressure was recorded from the femoral artery catheter on a Gould chart recorder (Gould, Cleveland, Ohio). The femoral vein catheter was used for injections of angiotensin II, mecamylamine and atropine. The tracheal catheter allow for airway patency, and the duodenal catheter was used for intraduodenal (i.d.) administration of test compounds. After surgery, the rats were allowed to equilibrate for 30 minutes. Mecamylamine (3 mg/kg, 0.3 ml/kg) and atropine (400 ug/kg, 0.3 ml/kg) were then given i.v. to produce ganglion blockade. These compounds were administered every 90 minutes throughout the test procedure. Angiotensin II was given in bolus does i.v. (30 ng/kg in saline with 0.5% bovine serum albumin, 0.1 ml/kg) every 10 minutes three times or until the increase in arterial pressure produced was within 3 mmHg for two consecutive AII injections. The last two AII injections were averaged and were taken as the control AII pressor response. […] Angiotensin II injections were then given 5, 10, 20, 30, 45, 60, 75, 90, and 120 minutes after administration of the test compound and response of arterial pressure was monitored. The response to AII was calculated as percent of the control response and then the percent inhibition is calculated as 100 minus the percent control response. Duration of action of a test compound was defined as the time from peak percent inhibition to 50% of peak. One compound at one dose was tested in each rat. Each test compound was tested in two rats and the values for the two rats were averaged.

[1] = biological target: T1, smooth muscle angiotensin II receptor; experiment: Assay A: Angiotensin II Binding Activity; details: rat uterine membrane preparation, displacement of 125I-AII
T1 construct: Rat uterine membranes were prepared from fresh tissue
Procedure: Assay A: Angiotensin II Binding Activity
Compounds of Formula I were tested for ability to bind to the smooth muscle angiotensin II receptor using a rat uterine membrane preparation. […] Other chemicals were obtained from Sigma Chemical Co. This assay was carried out according to the method of Douglas et al [Endocrinology, 106, 120–124 (1980)]. Rat uterine membranes were prepared from fresh tissue. All procedures were carried out at 4° C. Uteri were stripped of fat and homogenized in phosphate-buffered saline at pH 7.4 containing 5 mM EDTA. The homogenate was centrifuged at 1500×g for 20 min., and the supernatant was recentrifuged at 100,000×g for 60 min. The pellet was resuspended in buffer consisting of 2 mM EDTA and 50 mM Tris-HCl (pH 7.5) to a final protein concentration of 4 mg/ml. […] The reaction was initiated by the addition of membrane protein and the mixture was incubated at 25° C. for 60 min. The incubation was terminated with ice-cold 50 mM Tris-HCl (pH 7.5) and the mixture was filtered to separate membrane-bound labelled peptide from the free ligand. The incubation tube and filter were washed with ice-cold buffer. Filters were assayed for radioactivity in a Micromedic gamma counter. Nonspecific binding was defined as binding in the presence of 10 μM of unlabelled AII. Specific binding was calculated as total binding minus nonspecific binding. […] Binding data were analyzed by a nonlinear least-squares curve fitting program.

[2] = Rattus norvegicus, intraduodenal, 30 mg/kg intraduodenally
[3] = Rattus norvegicus, intraduodenal, 100 mg/kg intraduodenally

| SMILES | Assay B pA2 (rabbit aortic rings) | IC50 [1] [nM] | Kb (rabbit aortic rings) [nM] | also measured |
| --- | --- | --- | --- | --- |
| CCCCc1nc(Cl)nn1Cc1ccc(-c2ccccc2C(=O)O)cc1 (single isomer, unassigned) [Example 6, 4′-[(5-butyl-3-chloro-1H-1,2,4-triazol-1-yl)methyl][1,1′-biphenyl]-2-carboxylic acid] | 6.82 |  |  | Assay C Duration (AII pressor response; 100 mg/kg intraduodenally): 120 min |
| CCCCc1ncnn1Cc1ccc(-c2ccccc2C(=O)O)cc1 (single isomer, unassigned) [Example 18, 4′-[(5-butyl-1H-1,2,4-triazol-1-yl)methyl][1,1′-biphenyl]-2-carboxylic acid] | 6.09 | 970 |  |  |
| CCCCc1ncn(Cc2ccc(-c3ccccc3C(=O)O)cc2)n1 (single isomer, unassigned) [Example 19, 4′-[(3-butyl-1H-1,2,4-triazol-1-yl)methyl][1,1′-biphenyl]-2-carboxylic acid] | 5.35 | 12000 |  |  |
| CCCCc1nc(C(OC)OC)nn1Cc1ccc(-c2ccccc2-c2nnn[nH]2)cc1 (single isomer, unassigned) [Example 24] | 7.73 | 10 |  |  |
| CCCCc1nc(CCc2ccccc2)n(Cc2ccc(-c3ccccc3-c3nnn[nH]3)cc2)n1 (single isomer, unassigned) [Example 25] | 6.73 | 480 |  |  |
| CCCCc1nc(CC(OCC)OCC)n(Cc2ccc(-c3ccccc3-c3nnn[nH]3)cc2)n1 (single isomer, unassigned) [Example 37, 5-[4′-[[3-butyl-5-(2,2-diethyoxyethyl)-1H-1,2,4-triazol-1-yl]methyl][1,1′-biphenyl]-2-yl]-1H-tetrazole] | 6.85 | 340 |  |  |
| CCCCc1nc(CC)nn1Cc1ccc(-c2ccccc2-c2nnn[nH]2)cc1 (single isomer, unassigned) [Example 39, 5-[4′-[(5-butyl-3-ethyl-1H-1,2,4-triazol-1-yl)methyl][1,1′-biphenyl]-2-yl]-1H-tetrazole] | 7.84 | 10 |  |  |
| CCCCc1nc(CCC2CCCCC2)n(Cc2ccc(-c3ccccc3-c3nnn[nH]3)cc2)n1 (single isomer, unassigned) [Example 42, 5-[4′-[[3-butyl-5-(2-cyclohexylethyl)-1H-1,2,4-triazol-1-yl]methyl][1,1′-biphenyl]-2-yl]-1H-tetrazole] | 6.26 | 370 |  |  |
| CCCCc1nc(C(F)F)nn1Cc1ccc(-c2ccccc2-c2nnn[nH]2)cc1 (single isomer, unassigned) [Example 47, 5-[4′-[[5-butyl-3-(difluoromethyl)-1H-1,2,4-triazol-1-yl]methyl][1,1′-biphenyl]-2-yl]-1H-tetrazole] | 7.58 | 21 |  |  |
| CCCCc1nc(CCCC)n(Cc2ccc(-c3ccccc3C(=O)O)cc2)n1 [Example 2, 4′-[(3,5-dibutyl-1H-1,2,4-triazol-1-yl)methyl][1,1′-biphenyl]-2-carboxylic acid] |  |  | 42.7 |  |
| CCCCc1nc(CCCN)nn1Cc1ccc(-c2ccccc2-c2nnn[nH]2)cc1 [Example 5, 5-[4′-[[3-(3-aminopropyl)-5-butyl-1H-1,2,4-triazol-1-yl]methyl][1,1′-biphenyl]-2-yl]-1H-tetrazole] |  | 200 |  | Assay C Duration (AII pressor response; 30 mg/kg intraduodenally): 20 to 30 min; inhibition at 30 mg/kg (AII pressor response; [2]): 38% |
| CCCCc1nc(CCC(=O)O)nn1Cc1ccc(-c2ccccc2-c2nnn[nH]2)cc1 [Example 9, 5-[4′-[[5-butyl-3-(2-carboxyethyl)-1H-1,2,4-triazol-1-yl]methyl][1,1′-biphenyl]-2-yl]-1H-tetrazole] |  | 700 |  | Assay C Duration (AII pressor response; 30 mg/kg intraduodenally): 75 min; Assay C Duration (AII pressor response; 100 mg/kg intraduodenally): 130 min; inhibition at 30 mg/kg (AII pressor response; [2]): 80%; inhibition at 100 mg/kg (AII pressor response; [3]): 100% |
| CCCCc1nc(C(F)(F)CCC)nn1Cc1ccc(-c2ccccc2C(=O)O)cc1 [Example 10] |  |  |  | Assay C Duration (AII pressor response; 3 mg/kg intraduodenally, time from peak percent inhibition to 50% of peak): 100 min; Assay C Duration (AII pressor response; 30 mg/kg intraduodenally): 240 min; inhibition at 3 mg/kg (AII pressor response; Rattus norvegicus, intraduodenal): 86%; inhibition at 30 mg/kg (AII pressor response; [2]): 100% |
| CCCc1nc(CN)nn1Cc1ccc(-c2ccccc2-c2nnn[nH]2)cc1 [Example 12, 5-[4′-[(3-aminomethyl-5-propyl-1H-1,2,4-triazol-1-yl)methyl][1,1′-biphenyl]-2-yl]-1H-tetrazole] |  | 6 | 2.19 |  |
| CCCCCc1nc(CN)nn1Cc1ccc(-c2ccccc2-c2nnn[nH]2)cc1 [Example 13, 5-[4′-[(3-aminomethyl-5-pentyl-1H-1,2,4-triazol-1-yl)methyl][1,1′-biphenyl]-2-yl]-1H-tetrazole] |  |  | 2 |  |
| CCCCc1nc(CCC)nn1Cc1ccc(-c2ccccc2C(=O)O)cc1 [Example 14, 4′-[(5-butyl-3-propyl-1H-1,2,4-triazol-1-yl)methyl]-[1,1′-biphenyl]-2-carboxylic acid] |  |  | 1.45 |  |
| CCCCc1nc(CCC)n(Cc2ccc(-c3ccccc3C(=O)O)cc2)n1 [Example 15, 4′-[(3-butyl-5-propyl-1H-1,2,4-triazol-1-yl)methyl]-[1,1′-biphenyl]-2-carboxylic acid] |  | 16 | 4.9 |  |
| CCCCc1nc(CCC(C)C)n(Cc2ccc(-c3ccccc3C(=O)O)cc2)n1 [Example 16] |  |  | 1.12 |  |
| CCCCc1nc(CCC(C)C)nn1Cc1ccc(-c2ccccc2C(=O)O)cc1 [Example 17, 4′-[(5-butyl-3-isopentyl-1H-1,2,4-triazol-1-yl]methyl)-[1,1′-biphenyl]-2-carboxylic acid] |  | 4 | 2.29 |  |
| O=C(O)c1ccccc1-c1ccc(Cn2nc(C(F)(F)C(F)(F)C(F)(F)F)nc2C(F)(F)C(F)(F)C(F)(F)F)cc1 [Example 20, 4′-[(3,5-di-perfluoropropyl-1H-1,2,4-triazol-1-yl)methyl][1,1′-biphenyl]-2-carboxylic acid] |  |  | 1290 | Assay C Duration (AII pressor response; 100 mg/kg intraduodenally): 45 min; inhibition at 100 mg/kg (AII pressor response; [3]): 10% |
| CCCCc1nc(C=O)nn1Cc1ccc(-c2ccccc2-c2nnn[nH]2)cc1 [Example 49, 5-butyl-1-[2′-(1H-tetrazol-5-yl)[1,1′-biphenyl]-4-ylmethyl]-1H-1,2,4-triazole-3-carboxaldehyde] | 7.07 |  |  |  |
| CCCCc1nc(CCCN)n(Cc2ccc(-c3ccccc3-c3nnn[nH]3)cc2)n1 [Example 71, 5-[4-[[3-butyl-5-(3-aminopropyl)-1H-1,2,4-triazol-1-yl]methyl][1,1′-biphenyl]-2-yl]-1H-tetrazole] |  |  |  | Assay B antagonist activity (symbol in pA2 column) (rabbit aortic rings): * (Antagonist activity not observed up to 10 μM of test compound.) |
